We go through 3 substances from patent publication US6352852B1, “Method for the purification of human platelet heparanase” (The Australian National University, priority 1996, dated 2002).

Data set [1] has as its target T1, 13762 MAT cell heparanase (Rattus norvegicus, UniProt Q71RP1).
T1 construct: A time course incubation of 13762 MAT cell homogenates with HS at pH 5.1; endogenous in cells; host or cells: rat mammary adenocarcinoma 13762 MAT cells (Triton X-100 freeze/thaw homogenate)
T1 sequence (Q71RP1 29-536): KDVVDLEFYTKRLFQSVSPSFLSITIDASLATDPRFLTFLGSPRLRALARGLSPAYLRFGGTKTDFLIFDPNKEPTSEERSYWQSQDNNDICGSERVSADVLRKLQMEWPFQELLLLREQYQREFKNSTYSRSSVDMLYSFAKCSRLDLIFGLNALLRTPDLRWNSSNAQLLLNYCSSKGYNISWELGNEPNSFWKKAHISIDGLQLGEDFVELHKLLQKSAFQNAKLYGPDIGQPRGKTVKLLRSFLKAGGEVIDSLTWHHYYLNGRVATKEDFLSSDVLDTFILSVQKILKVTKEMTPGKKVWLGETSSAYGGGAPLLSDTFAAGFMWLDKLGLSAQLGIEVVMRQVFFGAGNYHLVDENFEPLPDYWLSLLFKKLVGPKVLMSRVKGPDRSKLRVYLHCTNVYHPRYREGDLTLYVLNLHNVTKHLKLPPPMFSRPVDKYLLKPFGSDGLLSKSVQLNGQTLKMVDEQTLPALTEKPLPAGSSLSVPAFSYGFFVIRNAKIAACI
Description: Gel filtration analysis of substrate degradation by rat 13762 MAT cell homogenate. The following applies: for heparanase activity towards the substrate: incubation for 16 h at pH 5.1, 6.5 or 7.5; for apparent Mr of degradation fragments: with NAM. It counts as biochemical. The method, then: To assay for heparanase activity, up to 2 μl of sample was added to an […], containing 5 mM-N-acetylmannosamine and 0.1 mg/ml BSA in a total volume of 20 μl and incubated at 37° C. for the appropriate time. The reaction was stopped by freezing the tubes, 0.3 ml cold PBS added, the solution centrifuged if necessary at 4° C. and 0.1 ml of the sample applied to a cHRG-Sepharose mini-column pre-equilibrated in PBS. The columns were washed with 0.7 ml PBS, the washings and flow through material transferred to a scintillation vial, 10 ml of scintillation fluid added, and the radioactivity determined. Enzyme activity was expressed as pmol product formed per hour per mg protein or 10^6 cells or ml of serum. The cHRG-Sepharose columns were regenerated by the addition of 1 ml of 0.05M-Tris-HCl buffer, pH 7.5, containing 2M-NaCl and then equilibrated with PBS.
Heparanase activity was also detected by gel filtration chromatography of the incubation mixture on a Superose 6 HR 10/30 column (Pharmacia LKB Biotechnology, Uppsala, Sweden), equilibrated in and subsequently developed in PBS. The Pharmacia FPLC system was run at a flow rate of 0.25 ml/min with 0.5 ml fractions collected directly into scintillation vials, to which 3 ml of scintillation fluid was added, and the radioactivity determined. The column was calibrated with ^3H-N-acetylglucosamine (221 Da), bovine lung heparin (12.5 kDa) and heparin-derived Mr ave. standards (16.7, 10.6, 6.7 and 3.1 kDa) which had been partially de-N-acetylated and re-N-acetylated with ^3H-acetic anhydride as described above for the preparation of radiolabelled HS. Radiolabelled chondroitin-6-sulphate and carboxyl-reduced HS (prepared by the method of Karamanos et al, (1988)) were also prepared by the above method.

The target in data set [2] is T2, Human platelet homogenate heparanase activity (Homo sapiens, UniProt Q9Y251).
T2 construct: assessed using the highly invasive rat mammary adenocarcinoma 13762 MAT and human platelet homogenates; from tissue; host or cells: human platelets (Triton X-100 freeze/thaw homogenate)
T2 sequence (Q9Y251 36-543): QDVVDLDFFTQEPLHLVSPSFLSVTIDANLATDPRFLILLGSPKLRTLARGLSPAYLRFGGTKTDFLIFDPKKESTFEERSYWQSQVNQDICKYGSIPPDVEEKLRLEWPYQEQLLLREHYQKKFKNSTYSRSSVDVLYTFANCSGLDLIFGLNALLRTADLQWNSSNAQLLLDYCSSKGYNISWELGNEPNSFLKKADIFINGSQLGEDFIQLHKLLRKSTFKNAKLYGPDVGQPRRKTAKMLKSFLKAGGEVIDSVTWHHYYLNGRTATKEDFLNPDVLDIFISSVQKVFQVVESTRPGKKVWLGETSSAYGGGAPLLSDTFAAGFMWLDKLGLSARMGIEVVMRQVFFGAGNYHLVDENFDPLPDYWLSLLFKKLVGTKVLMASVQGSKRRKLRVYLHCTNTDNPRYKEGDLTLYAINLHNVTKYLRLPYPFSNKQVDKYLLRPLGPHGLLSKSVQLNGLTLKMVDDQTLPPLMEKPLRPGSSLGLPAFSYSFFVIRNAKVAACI
Description: Substrate degradation by human platelet homogenate heparanase activity. It counts as biochemical. The method, then:
To assay for heparanase activity, up to 2 μl of sample was added to an incubation mixture consisting of 90 pmol of radiolabelled HS in 0.05M-sodium acetate buffer, pH 5.1, containing 5 mM-N-acetylmannosamine and 0.1 mg/ml BSA in a total volume of 20 μl and incubated at 37° C. for the appropriate time. The reaction was stopped by freezing the tubes, 0.3 ml cold PBS added, the solution centrifuged if necessary at 4° C. and 0.1 ml of the sample applied to a cHRG-Sepharose mini-column pre-equilibrated in PBS. The columns were washed with 0.7 ml PBS, the washings and flow through material transferred to a scintillation vial, 10 ml of scintillation fluid added, and the radioactivity determined. Enzyme activity was expressed as pmol product formed per hour per mg protein or 10^6 cells or ml of serum. The cHRG-Sepharose columns were regenerated by the addition of 1 ml of 0.05M-Tris-HCl buffer, pH 7.5, containing 2M-NaCl and then equilibrated with PBS.
Heparanase activity was also detected by gel filtration chromatography of the incubation mixture on a Superose 6 HR 10/30 column (Pharmacia LKB Biotechnology, Uppsala, Sweden), equilibrated in and subsequently developed in PBS. The Pharmacia FPLC system was run at a flow rate of 0.25 ml/min with 0.5 ml fractions collected directly into scintillation vials, to which 3 ml of scintillation fluid was added, and the radioactivity determined. […]

Data set [3] addresses T3, human platelet heparanase (Homo sapiens, UniProt Q9Y251).
T3 construct: human platelet heparanase has been purified to homogeneity from previously frozen, washed platelets; from tissue; host or cells: human platelets (frozen, washed; five-column purification)
T3 sequence (Q9Y251 158-543 limits assumed): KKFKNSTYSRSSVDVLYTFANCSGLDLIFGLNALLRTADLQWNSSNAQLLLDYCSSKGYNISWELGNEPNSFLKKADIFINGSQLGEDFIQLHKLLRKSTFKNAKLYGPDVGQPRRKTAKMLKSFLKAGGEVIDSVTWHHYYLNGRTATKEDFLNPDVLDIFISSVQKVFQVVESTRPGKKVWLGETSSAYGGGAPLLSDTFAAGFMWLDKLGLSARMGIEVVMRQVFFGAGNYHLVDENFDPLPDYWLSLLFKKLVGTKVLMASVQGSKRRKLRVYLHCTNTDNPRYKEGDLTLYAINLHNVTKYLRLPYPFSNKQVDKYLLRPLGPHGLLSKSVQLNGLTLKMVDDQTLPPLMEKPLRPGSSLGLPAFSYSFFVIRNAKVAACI
T3 sequence (Q9Y251 36-109 limits assumed): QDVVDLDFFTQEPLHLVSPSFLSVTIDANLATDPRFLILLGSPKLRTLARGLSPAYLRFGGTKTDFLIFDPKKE
The experiment in a line: Heparanase assay 2: gel filtration analysis of HS or heparin degradation by purified human platelet heparanase. The format is biochemical. As to conditions: 16 h at 37° C. The method, then:
Heparanase activity towards 2 μg of the radiolabelled HS or heparin analogues was assayed as described above for 16 h at 37° C., and detected by gel filtration analysis of the incubation mixture on either Superose 6 (for HS degradation) or Superose 12 (for heparin degradation). The chromatography columns were both equilibrated in and developed with PBS at a flow rate of 0.25 ml/min with 0.5 ml fractions being collected directly into scintillation vials, to which 3 ml of scintillation fluid was added, and the radioactivity determined. The columns were calibrated with ^3H-N-acetylglucosamine (221 Da), bovine lung heparin (12.5 kDa) and heparin-derived Mrave. standards (16.7, 10.6, 6.7 and 3.1 kDa) which had been partially de-N-acetylated and re-N-acetylated with ^3H-acetic anhydride as described above for the preparation of radiolabelled HS.

A further data set relates to cHRG-Sepharose. The experiment in a line: Binding of HS to cHRG-Sepharose, NaCl gradient elution. The arrangement: species or system chicken. As to conditions: salt gradient at pH 7.2. The method, then:
Binding of HS to cHRG-Sepharose; Samples in 200 μl of PBS were applied to a mini-column (0.5×4.0 cm) of cHRG-Sepharose equilibrated in PBS at 4° C. The column was washed with 2 ml of PBS and eluted with a linear gradient (2×10 mls) of PBS and 10 mM-sodium phosphate buffer, pH7.2, containing 1.2M-NaCl developed at 0.5 ml/min with 0.5 ml fractions collected directly into scintillation vials, to which 4 ml of scintillation fluid was added and the radioactivity determined. The columns were re-equilibrated in PBS for further use.

A short description of a further data set: Storage stability. The format is physicochemical. As to conditions: stored at −20° C. in 10% (v:v) aqueous ethanol, repeated freezing and thawing.

“carboxyl-reduced heparan sulphate [CR-HS]”: the “heparanase activity towards the substrate” value in data set [1] was “No activity was detected”; in data set [2], “did not act”.

“chondroitin-6-sulphate [chrondroitin-6-sulphate]”: in data set [1], the “heparanase activity towards the substrate” value is reported as “No activity was detected”.

heparan sulphate [HS]: the “size of fragments after cleavage” value in data set [3] stood at 5 kDa. Further, the “apparent Mr of degradation fragments” value was determined as 5 kDa in data set [1] (pH 5.1, 16 h at 37° C.); 8 kDa in data set [1] (pH 6.5, 16 h at 37° C.); 16 kDa in data set [1] (pH 7.5, 16 h at 37° C.). For the same substance, in the data set with cHRG-Sepharose, the “NaCl concentration eluting from cHRG-Sepharose” value was 0.27 M-NaCl. In addition, in “Storage stability”, the storage stability entry is “stable for over a year”. Moreover, the “size of digestion fragments” value in data set [2] amounted to 5 kDa.
